In patent US20060128792A1, “Deguelin as a chemopreventive agent for lung cancer” (priority 2002, published 2006):
Several values for one entry are separate records, joined by “and”; a condition that tells them apart may be missing. Identical values can stand only once.

Columns and labels:
Assay type in all cases: cell-based
NSCLC cells = assay: MTT assay, growth inhibition of NSCLC cells by deguelin and deguelin derivatives (Table 2, FIG. 7); conditions: 0.01-1 μM, 3 days
H322 = assay: MTT assay, growth inhibition by deguelin or deguelin derivatives; conditions: 3 days
H460 = assay: as above; conditions: 3 days
H596 = assay: as above; conditions: 3 days
H358 = assay: as above; conditions: 3 days
A549 = assay: as above; conditions: 3 days
H1299 = assay: as above; conditions: 3 days

bromorot-2′-enoic acid
inhibiting cell growth in NSCLC cells, ranking among the derivatives (NSCLC cells): most effective

C=C(C)[C@H]1Cc2c(ccc3c2O[C@@H]2COc4cc(OC)c(OC)cc4[C@@H]2C3=O)O1 [rotenone]
MTT assay reading, Average (H322; H322, 0.01 μM): 0.4327 | MTT assay reading, individual replicate (H322; H322, 0.01 μM): 0.477 and 0.569 and 0.498 and 0.266 and 0.304 and 0.489 and 0.426 | MTT assay reading, Average (H322; H322, 0.1 μM): 0.3726 | MTT assay reading, individual replicate (H322; H322, 0.1 μM): 0.414 and 0.357 and 0.41 and 0.408 and 0.319 and 0.361 and 0.339 | MTT assay reading, Average (H322; H322, 0.5 μM): 0.322 | MTT assay reading, individual replicate (H322; H322, 0.5 μM): 0.262 and 0.328 and 0.307 and 0.34 and 0.378 and 0.353 and 0.286 | MTT assay reading, Average (H322; H322, 1 μM): 0.2547 | MTT assay reading, individual replicate (H322; H322, 1 μM): 0.229 and 0.223 and 0.225 and 0.288 and 0.226 and 0.338 and 0.254 | % control (H460; H460, 0.01 μM): 0.14% | MTT assay reading, Average (H460; H460, 0.01 μM): 0.2486 | MTT assay reading, individual replicate (H460; H460, 0.01 μM): 0.092 and 0.412 and 0.24 and 0.191 and 0.228 and 0.242 and 0.335 | % control (H460; H460, 0.1 μM): 0.10% | MTT assay reading, Average (H460; H460, 0.1 μM): 0.1766 | MTT assay reading, individual replicate (H460; H460, 0.1 μM): 0.143 and 0.107 and 0.138 and 0.161 and 0.242 and 0.268 and 0.177 | % control (H460; H460, 0.5 μM): 0.09% | MTT assay reading, Average (H460; H460, 0.5 μM): 0.1499 | MTT assay reading, individual replicate (H460; H460, 0.5 μM): 0.185 and 0.159 and 0.143 and 0.1 and 0.104 and 0.117 and 0.241 | % control (H460; H460, 1 μM): 0.10% | MTT assay reading, Average (H460; H460, 1 μM): 0.1763 | MTT assay reading, individual replicate (H460; H460, 1 μM): 0.071 and 0.467 and 0.127 and 0.144 and 0.138 and 0.118 and 0.169 | MTT assay reading, Average (H596; H596, 0.01 μM): 0.4666 | MTT assay reading, individual replicate (H596; H596, 0.01 μM): 0.393 and 0.433 and 0.462 and 0.499 and 0.497 (2×) and 0.485 | MTT assay reading, Average (H596; H596, 0.1 μM): 0.3784 | MTT assay reading, individual replicate (H596; H596, 0.1 μM): 0.271 and 0.369 and 0.513 and 0.582 and 0.413 and 0.285 and 0.216 | MTT assay reading, Average (H596; H596, 0.5 μM): 0.2329 | MTT assay reading, individual replicate (H596; H596, 0.5 μM): 0.189 and 0.362 and 0.261 and 0.296 and 0.156 and 0.203 and 0.163 | MTT assay reading, Average (H596; H596, 1 μM): 0.177 | MTT assay reading, individual replicate (H596; H596, 1 μM): 0.205 (2×) and 0.123 and 0.193 and 0.172 and 0.161 and 0.18 | MTT assay reading, Average (H358; H358, 0.01 μM): 0.3171 | MTT assay reading, individual replicate (H358; H358, 0.01 μM): 0.298 and 0.253 and 0.268 and 0.348 and 0.331 and 0.329 and 0.393 | MTT assay reading, Average (H358; H358, 0.1 μM): 0.309 | MTT assay reading, individual replicate (H358; H358, 0.1 μM): 0.257 and 0.27 and 0.281 and 0.311 and 0.338 and 0.371 and 0.335 | MTT assay reading, Average (H358; H358, 0.5 μM): 0.2334 | MTT assay reading, individual replicate (H358; H358, 0.5 μM): 0.263 and 0.209 and 0.189 and 0.244 and 0.198 and 0.235 and 0.296 | MTT assay reading, Average (H358; H358, 1 μM): 0.2736 | MTT assay reading, individual replicate (H358; H358, 1 μM): 0.308 and 0.205 and 0.243 and 0.287 and 0.258 and 0.247 and 0.367 | % control (A549; A549, 0.01 μM): 0.35% | MTT assay reading, Average (A549; A549, 0.01 μM): 0.463 | MTT assay reading, individual replicate (A549; A549, 0.01 μM): 0.425 and 0.439 and 0.541 and 0.451 and 0.45 and 0.428 and 0.507 | % control (A549; A549, 0.1 μM): 0.27% | MTT assay reading, Average (A549; A549, 0.1 μM): 0.3653 | MTT assay reading, individual replicate (A549; A549, 0.1 μM): 0.418 and 0.293 and 0.364 and 0.26 and 0.429 and 0.354 and 0.439 | % control (A549; A549, 0.5 μM): 0.27% | MTT assay reading, Average (A549; A549, 0.5 μM): 0.3657 | MTT assay reading, individual replicate (A549; A549, 0.5 μM): 0.284 and 0.833 and 0.266 and 0.314 and 0.246 and 0.308 and 0.309 | % control (A549; A549, 1 μM): 0.13% | MTT assay reading, Average (A549; A549, 1 μM): 0.1791 | MTT assay reading, individual replicate (A549; A549, 1 μM): 0.188 and 0.171 and 0.176 and 0.213 and 0.173 and 0.141 and 0.192 | MTT assay reading, Average (H1299; H1299, 0.01 μM): 0.2794 | MTT assay reading, individual replicate (H1299; H1299, 0.01 μM): 0.249 and 0.392 and 0.221 and 0.209 and 0.261 and 0.311 and 0.313 | MTT assay reading, Average (H1299; H1299, 0.1 μM): 0.1907 | MTT assay reading, individual replicate (H1299; H1299, 0.1 μM): 0.25 and 0.3 and 0.158 and 0.09 and 0.125 and 0.235 and 0.177 | MTT assay reading, Average (H1299; H1299, 0.5 μM): 0.2391 | MTT assay reading, individual replicate (H1299; H1299, 0.5 μM): 0.308 and 0.259 and 0.248 and 0.197 and 0.195 and 0.179 and 0.288 | MTT assay reading, Average (H1299; H1299, 1 μM): 0.2753 | MTT assay reading, individual replicate (H1299; H1299, 1 μM): 0.226 and 0.193 and 0.23 and 0.175 and 0.76 and 0.148 and 0.195
